# From US20110280958A1 (priority 2010, published 2011)
# Legend:
# [1] = system: Alternaria solani; conditions: in vivo
# [2] = system: Phytophthora infestans; conditions: in vivo
# [3] = system: Venturia inaequalis; test: Venturia test (apples)/preventive; assay type: in vivo; conditions: preventive spray, evaluated 10 days after inoculation
# Method: Solvent: 24.5 parts by weight of acetone • 24.5 parts by weight of dimethylacetamide
# Emulsifier: 1 part by weight of alkylaryl polyglycol ether
# To produce a suitable preparation of active compound, 1 part by weight of active compound is mixed with the stated amounts of solvent and emulsifier, and the concentrate is diluted with water to the desired concentration. To test for preventive activity, young plants are sprayed with the preparation of active compound at the stated rate of application. After the spray coating has dried on, the plants are inoculated with an aqueous conidia suspension of the causal agent of apple scab (Venturia inaequalis) and then remain for 1 day in an incubation cabinet at approximately 20° C. and a relative atmospheric humidity of 100%. The plants are then placed in a greenhouse at approximately 21° C. and a relative atmospheric humidity of approximately 90%. The test is evaluated 10 days after the inoculation. 0% means an efficacy which corresponds to that of the untreated control, while an efficacy of 100% means that no disease is observed.
Structure (SMILES),Efficacy in % found [1],Efficacy in % found [2],Efficacy in % found ([3]; 250 ppm a.i.),Efficacy in % found ([3]; 25 ppm a.i.)
"O=S(=O)([O-])[O-].[Mg+2] [(1-2), magnesium sulphate]",0%,–,–,–
"O=S(=O)([O-])[O-].[Mn+2] [(3-2), manganese sulphate]",0%,0%,–,–
"O=S(=O)([O-])[O-].[Fe+2] [(3-3), iron sulphate]",35%,–,43%,–
"O=S(=O)([O-])[O-].[Zn+2] [(3-7), zinc sulphate]",23%,35%,19%,–
"Cn1c(=O)c2sc3c(=O)n(C)c(=O)c3sc2c1=O [(I-1), 2,6-dimethyl-1H,5H-[1,4]dithiino[2,3-c:5,6-c′]dipyrrole-1,3,5,7(2H,6H)-tetrone]",–,9%,–,32%
